≈ marks a conversion by molar mass, not a printed value.

Usually half-life stands for how long it takes for the measured level to halve. Low values mean fast loss, high ones slow loss. One may read the GI50 as the concentration giving 50% growth inhibition. Lower therefore signals greater sensitivity of the cells. A word on the solubility: it is the concentration that dissolves in the medium under given conditions. The low end stands for a poorly soluble substance, the high end for a readily soluble substance.

The subject of series [1] is BJ-derived cell lines (BJeLR, DRD, BJeHLT, BJeH). Nature of the series: potency and genotype-selective lethality in BJ-derived isogenic cell lines. As to conditions: for potency in HRAS^G12V-overexpressing cell lines: BJeLR, DRD cells. In kind it is cell-based, human.
Series [2] is described as follows: metabolic stability in mouse liver microsomes. It counts as in vitro ADME. As to conditions: for half-life: mouse, liver microsomes, pH 7.4; for metabolic stability: mouse liver microsomes, 37 °C, pH 7.4, NADPH-generating system. Background: Liver microsomes are a subcellular fraction often used to study metabolism.
Series [3] relates to HT-1080 human fibrosarcoma cell line. The series is described as follows: growth inhibition of HT-1080 cells. In kind it is cell-based. As to conditions: for growth inhibition: HT-1080 cells, 48 h treatment.
Series [4] can be described thus: stability in mouse plasma. It counts as in vitro ADME. The settings on record: 500 ng/mL, 37 °C, up until 120 min.
Another series in a line: water solubility. In kind it is physicochemical.
Series [5] relates to NRAS mutant human HT-1080 fibrosarcoma. The settings on record: nude mice; cited from earlier work.

For the compound `CC(=O)c1ccc(OC(C)C)c(-n2c(CN3CCN(C(=O)COc4ccc(Cl)cc4)CC3)nc3ccccc3c2=O)c1` [KE], in series [1], the “potency in HRAS^G12V-overexpressing cell lines” value (“potency” below) is recorded as “low nanomolar potencies”. The same compound registered a half-life in series [2] of less than 5 min.
With `CC(C)Oc1ccc(C(=O)Cn2ccnc2)cc1-n1c(CN2CCN(C(=O)COc3ccc(Cl)cc3)CC2)nc2ccccc2c1=O` [IKE, imidazole ketone erastin], in series [1] (4 isogenic BJ-derived cell lines), the “selective lethality to BJeLR and DRD cells compared to BJeH and BJeHLT cells” value is reported as “selective lethality”. Also, the “potency” value in series [1] was “low nanomolar potencies”. Moreover, the growth inhibition result in series [3] was “complete growth inhibition”. In series [3] (Homo sapiens, HT-1080, 48 h), this compound returned a GI50 of 310 nM. Further, in series [4], the “stability in mouse plasma” value was “remained stable”.
On to `CC(C)Oc1ccc(C(=O)CN2CCNCC2)cc1-n1c(CN2CCN(C(=O)COc3ccc(Cl)cc3)CC2)nc2ccccc2c1=O` [PKE, piperazine ketone erastin], for which the “potency” value in series [1] is given as “low nanomolar potencies”. For the same compound, the growth inhibition entry in series [3] is listed as “complete growth inhibition”. In addition, the half-life in series [2] was more than 90 min. For the same compound, the “stability in mouse plasma” value in series [4] is “remained stable”.
Turning to `C=CCN1CCN(CC(=O)c2ccc(OC(C)C)c(-n3c(CN4CCN(C(=O)COc5ccc(Cl)cc5)CC4)nc4ccccc4c3=O)c2)CC1` [APKE, N-allylpiperazine ketone erastin], the metabolic stability result in series [2] was “medium to poor metabolic stability”.
With `CC(C)Oc1ccc(C(=O)CN2CCN(C)CC2)cc1-n1c(CN2CCN(C(=O)COc3ccc(Cl)cc3)CC2)nc2ccccc2c1=O` [MPKE, N-methylpiperazine ketone erastin], in series [2], the metabolic stability entry is “medium to poor metabolic stability”.
For `COc1ccc(CN2CCN(CC(=O)c3ccc(OC(C)C)c(-n4c(CN5CCN(C(=O)COc6ccc(Cl)cc6)CC5)nc5ccccc5c4=O)c3)CC2)cc1` [PMB-PKE, N-p-methoxybenzylpiperazine ketone erastin], the metabolic stability result in series [2] is recorded as “medium to poor metabolic stability”.
As to `CC(C)Oc1ccc(C(=O)CF)cc1-n1c(CN2CCN(C(=O)COc3ccc(Cl)cc3)CC2)nc2ccccc2c1=O` [FKE, α-fluoro ketone erastin], in series [1], the “potency” value was “low nanomolar potencies”. For the same compound, in series [2], the metabolic stability entry is listed as “medium to poor metabolic stability”.
With `CC(C)Oc1ccc(C=O)cc1-n1c(CN2CCN(C(=O)COc3ccc(Cl)cc3)CC2)nc2ccccc2c1=O` [AE, aldehyde erastin, reference compound], in series [1], the “potency” value was “low nanomolar potencies”. Besides, the half-life in series [2] is less than 5 min.
`CCOc1ccccc1-n1c(C(C)N2CCN(C(=O)COc3ccc(Cl)cc3)CC2)nc2ccccc2c1=O` (centres unmarked) [Erastin, erastin]: the concentration in solution in “water solubility” (solubility) was 86 µM (≈ 47 µg/mL).
Take `CC(C)Oc1ccc(CN2CCNCC2)cc1-n1c(CN2CCN(C(=O)COc3ccc(Cl)cc3)CC2)nc2ccccc2c1=O` [PE, piperazine erastin]: the “effect on the growth of already established tumors” value in series [5] is on record as “limited effect”.

(Values after paper PMC4653046 (Bioorganic & medicinal chemistry letters, 2015).)
